The test system of this assay is BDF1 mice, Adenocarcinoma 755 s.c., tumor weight T/C. Kind of assay: NCI In Vivo Anticancer Drug Screen. Data for tumor model Adenocarcinoma 755 (subcutaneous) in B6D2F1 (BDF1) mice. Conditions: endpoint: mean tumor weight, schedule: Q01DX011 (ip), higher = larger tumour. As for the experimental part:
The antitumor activity of compounds was measured in mice bearing transplantable tumors. Survival or tumor size were measured and the results are expressed as the measurement made in the treated group (T) divided by the measurement made in the vehicle treated control group (C). The tumor model used in this assay is Adenocarcinoma 755 (subcutaneous) in B6D2F1 (BDF1) mice

Where [1] appears, read: dose: 20.0 mg/kg/injection, vehicle: carboxymethylcellulose (CMC).
Where [2] appears, read: dose: 40.0 mg/kg/injection, vehicle: carboxymethylcellulose (CMC).
Setting [3] is: dose: 80.0 mg/kg/injection, vehicle: carboxymethylcellulose (CMC).
Setting [4] is: dose: 30.0 mg/kg/injection, vehicle: carboxymethylcellulose (CMC).
[5] abbreviates: dose: 60.0 mg/kg/injection, vehicle: carboxymethylcellulose (CMC).
[6] abbreviates: dose: 25.0 mg/kg/injection, vehicle: methylcellulose (MC).
[7] abbreviates: dose: 25.0 mg/kg/injection, vehicle: carboxymethylcellulose (CMC).
Setting [8] is: dose: 6.25 mg/kg/injection, vehicle: methylcellulose (MC).
Where [9] appears, read: dose: 12.5 mg/kg/injection, vehicle: methylcellulose (MC).
[10] abbreviates: dose: 50.0 mg/kg/injection, vehicle: carboxymethylcellulose (CMC).
The mark [11] stands for this setting: dose: 100.0 mg/kg/injection, vehicle: carboxymethylcellulose (CMC).
Where [12] appears, read: dose: 16.0 mg/kg/injection, vehicle: carboxymethylcellulose (CMC).
Setting [13] is: dose: 125.0 mg/kg/injection, vehicle: methylcellulose (MC).
[14] abbreviates: dose: 31.0 mg/kg/injection, vehicle: carboxymethylcellulose (CMC).
The mark [15] stands for this setting: dose: 62.0 mg/kg/injection, vehicle: carboxymethylcellulose (CMC).
Setting [16] is: dose: 400.0 mg/kg/injection, vehicle: saline.
The mark [17] stands for this setting: dose: 600.0 mg/kg/injection, vehicle: saline.

The structures appear in SMILES notation. Several values for one entry are separate records, joined by “and”; a condition that tells them apart may be missing. Equal values may be shown once.

`O=C(O)CC(O)(CC(=O)O)C(=O)O.[Ga]`: the T/C (in general, the result in the treated group divided by that in the control group, in per cent) runs as follows: (dose: 0.15 mg/kg/injection, vehicle: carboxymethylcellulose (CMC)) 101 % of control; (dose: 0.3 mg/kg/injection, vehicle: carboxymethylcellulose (CMC)) 67 % of control; (dose: 0.31 mg/kg/injection, vehicle: carboxymethylcellulose (CMC)) 58 % of control; (dose: 0.6 mg/kg/injection, vehicle: carboxymethylcellulose (CMC)) 72 % of control; (dose: 0.62 mg/kg/injection, vehicle: carboxymethylcellulose (CMC)) 55 % of control; (dose: 1.2 mg/kg/injection, vehicle: carboxymethylcellulose (CMC)) 42 % of control and 62 % of control. Further, the T/C (dose: 1.25 mg/kg/injection, vehicle: carboxymethylcellulose (CMC)) was 25 % of control and 36 % of control; the T/C under setting [1] was 5 % of control and 18 % of control; the T/C under setting [2] is 5 % of control; the T/C under setting [3] is 2 % of control.
On to `Cc1cc(C)c(/C=N/Nc2nc3c(c(=O)n(C)c(=O)n3C)n2C)c(C)c1`, for which the T/C reads like this: under setting [4], 68 % of control; under setting [5], 106 % of control.
Regarding `O=C(CCBr)NCCCNC(=O)CCBr`, the T/C runs as follows: under setting [6], 54 % of control; (dose: 75.0 mg/kg/injection, vehicle: methylcellulose (MC)) 37 % of control.
Regarding `CC(C)Cn1cnc2c(SCc3ccccn3)nc(N)nc21`, the T/C (dose: 20.0 mg/kg/injection, vehicle: methylcellulose (MC)) was 5 % of control and the T/C (dose: 65.0 mg/kg/injection, vehicle: methylcellulose (MC)) is 1 % of control.
In the case of `[N-]=[N+]=C1N=CN=C1c1ncn[nH]1`, under setting [7], the T/C was 103 % of control.
With `CCCNc1ncnc2c1cnn2C1CCCCO1` (stereo unspecified), the T/C by setting is: (dose: 3.12 mg/kg/injection, vehicle: methylcellulose (MC)) 67 % of control; under setting [8], 54 % of control; under setting [9], 44 % of control.
For `COC(=O)C1(N)CCCC1`, the T/C reads like this: (dose: 12.5 mg/kg/injection, vehicle: carboxymethylcellulose (CMC)) 63 % of control; under setting [7], 35 % of control; under setting [10], 11 % of control; under setting [11], 5 % of control.
Regarding `CC(Nc1ncnc2nc[nH]c12)C(=O)O` (stereo unspecified), the T/C (dose: 25.0 mg/kg/injection, vehicle: saline) is 114 % of control; the T/C (dose: 75.0 mg/kg/injection, vehicle: saline) was 86 % of control; the T/C (dose: 225.0 mg/kg/injection, vehicle: saline) was 20 % of control.
For `CCC(=O)N(CC)CC`, the T/C (dose: 250.0 mg/kg/injection, vehicle: other) is 100 % of control.
As to `CCCCNc1ncnc2c1cnn2C`, the T/C by setting is: (dose: 4.0 mg/kg/injection, vehicle: carboxymethylcellulose (CMC)) 96 % of control; (dose: 8.0 mg/kg/injection, vehicle: carboxymethylcellulose (CMC)) 84 % of control; under setting [12], 52 % of control; (dose: 31.25 mg/kg/injection, vehicle: carboxymethylcellulose (CMC)) 30 % of control; (dose: 32.0 mg/kg/injection, vehicle: carboxymethylcellulose (CMC)) 20 % of control.
For the compound `CCCCn1cnc2c(SCc3ccccc3Cl)nc(N)nc21`, the T/C (dose: 62.5 mg/kg/injection, vehicle: methylcellulose (MC)) was 24 % of control; the T/C under setting [13] was 13 % of control; the T/C (dose: 250.0 mg/kg/injection, vehicle: methylcellulose (MC)) is 5 % of control.
As to `CCCSc1nc(N)nc2c1ncn2CC(C)C`, the T/C is 31 % of control under setting [8]; 25 % of control under setting [9]; 4 % of control under setting [6]; 1 % of control (dose: 50.0 mg/kg/injection, vehicle: methylcellulose (MC)).
Consider `Oc1ccc2ccccc2c1N=Nc1ccc(F)cc1`, for which the T/C (dose: 15.0 mg/kg/injection, vehicle: carboxymethylcellulose (CMC)) was 70 % of control; the T/C under setting [7] is 104 % of control; the T/C under setting [14] is 37 % of control; the T/C (dose: 45.0 mg/kg/injection, vehicle: carboxymethylcellulose (CMC)) was 33 % of control; the T/C under setting [10] was 30 % of control; the T/C (dose: 50.0 mg/kg/injection, vehicle: saline) was 38 % of control. Moreover, the T/C is 46 % of control under setting [15]; 27 % of control under setting [11]; 12 % of control (dose: 100.0 mg/kg/injection, vehicle: saline); 22 % of control (dose: 200.0 mg/kg/injection, vehicle: saline); 9 % of control (dose: 224.0 mg/kg/injection, vehicle: carboxymethylcellulose (CMC)); 12 % of control and 15 % of control (dose: 400.0 mg/kg/injection, vehicle: carboxymethylcellulose (CMC)). The T/C reads like this: under setting [16], 15 % of control; (dose: 450.0 mg/kg/injection, vehicle: carboxymethylcellulose (CMC)) 17 % of control; under setting [17], 14 % of control; (dose: 800.0 mg/kg/injection, vehicle: carboxymethylcellulose (CMC)) 21 % of control; (dose: 1600.0 mg/kg/injection, vehicle: carboxymethylcellulose (CMC)) 8 % of control.
Consider `Cn1c(=O)c2[nH]c(NN)nc2n(C)c1=O`, for which the T/C under setting [6] was 66 % of control.
Consider `CCn1cnc2ncnc(SCc3ccccc3)c21`, for which the T/C runs as follows: under setting [12], 107 % of control; under setting [14], 89 % of control; under setting [15], 46 % of control.
For the compound `Nc1nc(I)c2ncn(C3OC(CO)C(O)C3O)c2n1` (stereo unspecified), the T/C was 113 % of control (dose: 30.0 mg/kg/injection, vehicle: saline); 121 % of control (dose: 60.0 mg/kg/injection, vehicle: saline); 82 % of control (dose: 120.0 mg/kg/injection, vehicle: saline); 62 % of control (dose: 240.0 mg/kg/injection, vehicle: saline); 9 % of control under setting [16]; 47 % of control under setting [17].
As for `CC(Cl)CN(Cc1cc(O)c(CN(CC(C)Cl)CC(C)Cl)cc1O)CC(C)Cl` (stereo unspecified), the T/C under setting [13] is 58 % of control.
In the case of `O=c1[nH]c2cnc(Cl)nc2[nH]1`, the T/C is, setting by setting: under setting [4], 116 % of control; under setting [5], 85 % of control; (dose: 120.0 mg/kg/injection, vehicle: carboxymethylcellulose (CMC)) 168 % of control.
Consider `CC(CNC(=O)CCBr)NC(=O)CCBr` (stereo unspecified), for which the T/C reads like this: (dose: 37.5 mg/kg/injection, vehicle: carboxymethylcellulose (CMC)) 79 % of control and 81 % of control; (dose: 75.0 mg/kg/injection, vehicle: carboxymethylcellulose (CMC)) 26 % of control and 36 % of control; (dose: 150.0 mg/kg/injection, vehicle: carboxymethylcellulose (CMC)) 10 % of control and 19 % of control.
On to `S=c1[nH]c(=S)c2[nH]cnc2[nH]1`, for which the T/C reads like this: under setting [7], 84 % of control; under setting [10], 58 % of control; under setting [11], 31 % of control.
For `CCc1c(CC(=O)O)c2cc(C)ccc2n1Cc1ccc(Cl)cc1`, the T/C is, setting by setting: under setting [1], 87 % of control; under setting [2], 119 % of control; under setting [3], 97 % of control; under setting [11], 37 % of control.
